In publication PMC9503212, “A High-Affinity ^64Cu-Labeled Ligand for PET Imaging of Hepsin: Design, Synthesis, and Characterization” (Pharmaceuticals, 2022):

How the values were obtained:
[1] = target: T1, matriptase (Homo sapiens, UniProt Q9Y5Y6); assay: In vitro binding assay (fluorogenic BOC–QAR–AMC substrate), matriptase; assay type: biochemical; settings: 0.3 nM enzyme, 150 μM substrate, Ki by Cheng and Prusoff from IC50, three determinations
T1 sequence (Q9Y5Y6 1-855): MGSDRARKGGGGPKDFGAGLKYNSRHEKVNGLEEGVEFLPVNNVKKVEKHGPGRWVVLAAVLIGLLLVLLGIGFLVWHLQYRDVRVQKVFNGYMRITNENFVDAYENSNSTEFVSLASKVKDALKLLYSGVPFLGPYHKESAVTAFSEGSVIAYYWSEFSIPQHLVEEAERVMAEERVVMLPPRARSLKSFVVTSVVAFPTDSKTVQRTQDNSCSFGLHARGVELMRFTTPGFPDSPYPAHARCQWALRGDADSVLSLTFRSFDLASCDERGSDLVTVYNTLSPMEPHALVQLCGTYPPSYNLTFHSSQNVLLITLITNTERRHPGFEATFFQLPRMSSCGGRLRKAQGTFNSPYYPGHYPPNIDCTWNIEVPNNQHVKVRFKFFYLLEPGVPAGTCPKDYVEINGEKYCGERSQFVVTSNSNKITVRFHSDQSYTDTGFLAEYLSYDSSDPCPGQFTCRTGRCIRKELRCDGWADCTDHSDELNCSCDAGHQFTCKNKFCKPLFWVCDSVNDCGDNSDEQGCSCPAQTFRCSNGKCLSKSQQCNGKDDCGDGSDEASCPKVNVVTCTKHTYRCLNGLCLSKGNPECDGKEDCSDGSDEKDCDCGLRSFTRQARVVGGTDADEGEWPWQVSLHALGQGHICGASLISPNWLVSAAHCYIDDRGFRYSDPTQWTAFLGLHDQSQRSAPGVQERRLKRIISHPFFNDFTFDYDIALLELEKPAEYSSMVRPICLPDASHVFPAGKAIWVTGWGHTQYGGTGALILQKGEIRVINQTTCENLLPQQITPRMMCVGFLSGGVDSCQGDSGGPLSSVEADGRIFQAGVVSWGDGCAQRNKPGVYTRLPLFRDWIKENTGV
Procedure: (§1) Ligands (0.03 nM–30 µM) were diluted in DMSO (2% final concentration) and mixed with either activated hepsin or matriptase in 96-well plates. The final assay concentration for both hepsin and matriptase in TNC buffer was 0.3 nM. After an incubation period of 30 min at 37 °C, BOC–QAR–AMC substrate (R&D Systems) was added to hepsin and matriptase assay mixtures. The final substrate concentration was 150 μM in a final reaction volume of 100 μL.
(§2) Changes in fluorescence (excitation at 380 nm and emission at 460 nm) were measured at room temperature over 2 h in a BioTek Synergy two-plate reader (Agilent Technologies). Using the GraphPad Prism version 6.02 software (San Diego, CA, USA), a non-linear curve fit was performed to determine the inhibitor IC50s from a plot of the mean reaction velocity versus the inhibitor concentration. The IC50 values represent the average of three experimental determinations (Figure S1). Ki values were calculated using the Cheng and Prusoff equation (Ki = IC50/(1 + [S]/Km)).

[2] = target: T2, Recombinant hepsin (Homo sapiens, UniProt P05981); assay: In vitro binding assay (fluorogenic BOC–QAR–AMC substrate), hepsin; assay type: biochemical; settings: for Ki: 0.3 nM enzyme, 150 μM substrate, Ki by Cheng and Prusoff from IC50, three determinations; for Matriptase/ Hepsin (hepsin selectivity, ratio of Ki values): ratio of Ki values for matriptase and hepsin
T2 construct: purchased R&D Systems
T2 sequence (P05981 163-417 limits assumed): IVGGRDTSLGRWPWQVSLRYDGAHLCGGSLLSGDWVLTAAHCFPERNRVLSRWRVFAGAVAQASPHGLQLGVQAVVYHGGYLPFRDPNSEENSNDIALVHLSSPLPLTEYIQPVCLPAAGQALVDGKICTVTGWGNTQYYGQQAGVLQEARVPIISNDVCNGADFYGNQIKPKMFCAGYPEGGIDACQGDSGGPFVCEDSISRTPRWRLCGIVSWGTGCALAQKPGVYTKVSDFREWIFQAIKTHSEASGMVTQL
T2 sequence (P05981 1-162 partner limits assumed): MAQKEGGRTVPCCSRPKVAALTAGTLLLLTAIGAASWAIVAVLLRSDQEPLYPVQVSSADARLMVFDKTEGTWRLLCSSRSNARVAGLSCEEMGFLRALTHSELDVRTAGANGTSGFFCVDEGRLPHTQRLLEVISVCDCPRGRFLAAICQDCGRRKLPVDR
Procedure: Recombinant hepsin (R&D Systems, Minneapolis, MN, USA) was diluted 5.5-fold in TNC buffer (25 mM Tris-HCl, 150 mM NaCl, 5 mM CaCl2, 0.01% Triton X-100, pH 8) and incubated at 37 °C. After 24 h, hepsin was diluted in glycerol to 50%. The stock solution (1.2 μM) was stored at −81 °C and diluted in TNC buffer before use.
as §1, §2

[3] = system: hepsin; settings: cited from earlier work

For `CC(=O)N[C@@H](CC(C)C)C(=O)NC(CCCNC(=N)N)C(=O)c1nccs1` (some centres unmarked) [Ac–Leu–Arg–kt, reference compound], which Ki [1] is on record?
Its Ki is 56.5 ± 2.7 nM.

And the Ki [2]?
Its Ki is 7.8 ± 2.8 nM.

And the “Matriptase/ Hepsin (hepsin selectivity, ratio of Ki values)” value [2]?
Its value is 7.2.

And the “hepsin selectivity (ratio of Ki values for matriptase and hepsin), previous reported value” [3]?
The value was 14.9.

And the Ki ([3]; read-out: Ki hepsin, previous reported value)?
The Ki was 22.4 ± 0.5 nM.

Which results are given for `CC(C)C[C@H](NC(=O)CCc1cn(CCOCCOCCF)nn1)C(=O)NC(CCCNC(=N)N)C(=O)c1nccs1` (stereo partly drawn) [Ligand 1A, (2S)-2-(3-(1-(2-(2-(2-Fluoroethoxy)ethoxy)ethyl)-1H-1,2,3-triazol-4-yl)propanamido)-N-(5-guanidino-1-oxo-1-(thiazol-2-yl)pentan-2-yl)-4-methylpentanamide]?
Ki [1]: 54.5 ± 4.9 nM; Ki [2]: 0.9 ± 0.1 nM; Matriptase/ Hepsin (hepsin selectivity, ratio of Ki values) [2]: 60.6

Which results are given for `CC(C)C[C@H](NC(=O)CCc1cn(CCOCCOCCF)nn1)C(=O)NC(CCCNC(=N)N)C(=O)c1nccs1` (stereo partly drawn) [Ligand 1B, (2S)-2-(3-(1-(2-(2-(2-Fluoroethoxy)ethoxy)ethyl)-1H-1,2,3-triazol-4-yl)propanamido)-N-(5-guanidino-1-oxo-1-(thiazol-2-yl)pentan-2-yl)-4-methylpentanamide]?
Ki [1]: 20 ± 0.6 nM; Ki [2]: 0.5 ± 0.1 nM; Matriptase/ Hepsin (hepsin selectivity, ratio of Ki values) [2]: 40.0

Which Ki [1] does the source give for “^natCu-DOTA-conjugated 1-amino-N-(1-((5-guanidino-1-oxo-1-(thiazol-2-yl)pentan-2-yl)amino)-4-methyl-1-oxopentan-2-yl)-3,6,9,12-tetraoxapentadecan-15-amide [Ligand 3A]” here?
The Ki was 249 ± 12.3 nM.

What about the Ki [2] of the same compound?
Its Ki is 15 ± 0.6 nM.

And the “Matriptase/ Hepsin (hepsin selectivity, ratio of Ki values)” value [2]?
The value was 16.6.

What does the source list for “^natCu-DOTA-conjugated 1-amino-N-(1-((5-guanidino-1-oxo-1-(thiazol-2-yl)pentan-2-yl)amino)-4-methyl-1-oxopentan-2-yl)-3,6,9,12-tetraoxapentadecan-15-amide [Ligand 3B]”?
Ki [1]: 120 ± 3.5 nM; Ki [2]: 5.1 ± 0.3 nM; Matriptase/ Hepsin (hepsin selectivity, ratio of Ki values) [2]: 23.5

For “^natGa-DOTA-conjugated 1-amino-N-(1-((5-guanidino-1-oxo-1-(thiazol-2-yl)pentan-2-yl)amino)-4-methyl-1-oxopentan-2-yl)-3,6,9,12-tetraoxapentadecan-15-amide [Ligand 2A]”, which Ki [1] is on record?
Its Ki is 166 ± 8.2 nM.

What about the Ki [2] of the same compound?
Its Ki is 14.3 ± 1.2 nM.

What about the “Matriptase/ Hepsin (hepsin selectivity, ratio of Ki values)” value [2] of the same compound?
The value was 11.6.

For “^natGa-DOTA-conjugated 1-amino-N-(1-((5-guanidino-1-oxo-1-(thiazol-2-yl)pentan-2-yl)amino)-4-methyl-1-oxopentan-2-yl)-3,6,9,12-tetraoxapentadecan-15-amide [Ligand 2B]”, which Ki [1] is on record?
The Ki was 68.2 ± 2.4 nM.

And the Ki [2]?
The Ki was 5.7 ± 0.2 nM.

And the “Matriptase/ Hepsin (hepsin selectivity, ratio of Ki values)” value [2]?
Its value is 12.0.
